Reference: ChEMBL document CHEMBL1201862, “PubChem BioAssay data set” (2004)
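These data come from cells grown in 96-well plates and exposed to compound for 48 hours at five concentrations. Abbreviation: GI50, concentration required for 50% inhibition of growth.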 Calls of active or inactive are those of the source. No stated cut-off is given here; in the data, active = GI50 up to about 1.1 µM and inactive = higher.

Key:
Experiment in all cases: growth of human tumour cells (NCI), 48 h
ACHN = system: ACHN
CAKI-1 = system: CAKI-1
COLO 205 = system: COLO 205
DU-145 = system: DU-145
HCC 2998 = system: HCC 2998
HCT-15 = system: HCT-15
HOP-62 = system: HOP-62
HOP-92 = system: HOP-92
MDA-MB-435 = system: MDA-MB-435
NCI-H226 = system: NCI-H226
OVCAR-3 = system: OVCAR-3
OVCAR-4 = system: OVCAR-4
OVCAR-5 = system: OVCAR-5
SF-268 = system: SF-268
SF-295 = system: SF-295
SF-539 = system: SF-539
SK-MEL-28 = system: SK-MEL-28
SNB-19 = system: SNB-19
SNB-75 = system: SNB-75
UACC-257 = system: UACC-257

Row | SMILES | GI50 (ACHN) | GI50 (CAKI-1) | GI50 (COLO 205) | GI50 (DU-145) | GI50 (HCC 2998) | GI50 (HCT-15) [µM] | GI50 (HOP-62) | GI50 (HOP-92) | GI50 (MDA-MB-435) | GI50 (NCI-H226) | GI50 (OVCAR-3) | GI50 (OVCAR-4) | GI50 (OVCAR-5) | GI50 (SF-268) | GI50 (SF-295) | GI50 (SF-539) | GI50 (SK-MEL-28) | GI50 (SNB-19) | GI50 (SNB-75) | GI50 (UACC-257)
1 | CCN(CC)CCN(C)CCc1ccc(Br)cc1 | > 100 µM (inactive) | > 100 µM (inactive) | 17.4 µM (inactive) | > 100 µM (inactive) | > 100 µM (inactive) | 61.1 | 29.7 µM (inactive) | 27.4 µM (inactive) | 53.1 µM (inactive) | 24.7 µM (inactive) | > 100 µM (inactive) | 97.3 µM (inactive) | 48 µM (inactive) | > 100 µM (inactive) | 51.5 µM (inactive) | 30.8 µM (inactive) | 41.7 µM (inactive) | > 100 µM (inactive) | 46.7 µM (inactive) | 37.6 µM (inactive)
2 | CCOC(=O)c1c2ccccc2n2c(=O)n(-c3ccc(OC)cc3)nnc12 | 31.1 µM (inactive) | > 45.7 µM (inactive) | > 100 µM (inactive) | 75.2 µM (inactive) | > 100 µM (inactive) | > 58.6 | 21.1 µM (inactive) | 21.7 µM (inactive) | > 37.1 µM (inactive) | 23.3 µM (inactive) | 34.4 µM (inactive) | 22.5 µM (inactive) | 46.1 µM (inactive) | 16.2 µM (inactive) | 20.3 µM (inactive) | 19.5 µM (inactive) | 65.6 µM (inactive) | 34.2 µM (inactive) | 14.5 µM (inactive) | 60.5 µM (inactive)
3 | O=C(OCc1ccccc1)C1(N2CN(C3(C(=O)OCc4ccccc4)CCCC3)CN(C3(C(=O)OCc4ccccc4)CCCC3)C2)CCCC1 | > 10 µM (inactive) | > 10 µM (inactive) | > 10 µM (inactive) | > 10 µM (inactive) | > 10 µM (inactive) | > 10 | > 10 µM (inactive) | > 10 µM (inactive) | > 10 µM (inactive) | > 10 µM (inactive) | > 10 µM (inactive) | > 10 µM (inactive) | > 10 µM (inactive) | > 10 µM (inactive) | > 10 µM (inactive) | > 10 µM (inactive) | > 10 µM (inactive) | > 10 µM (inactive) | > 10 µM (inactive) | > 10 µM (inactive)
4 | O=C1NC(Nc2ccccc2Cl)=N/C1=C\c1c(Cl)cccc1Cl | 50.5 µM (inactive) | 27.8 µM (inactive) | 27.7 µM (inactive) | 37.2 µM (inactive) | 21.9 µM (inactive) | 25.5 | 39.7 µM (inactive) | 19.9 µM (inactive) | 11 µM (inactive) | 42.5 µM (inactive) | 27 µM (inactive) | 11.6 µM (inactive) | 30 µM (inactive) | 31.1 µM (inactive) | 26.5 µM (inactive) | 51.5 µM (inactive) | 51.8 µM (inactive) | 44.1 µM (inactive) | 24.7 µM (inactive) | 25.4 µM (inactive)
5 | CCOc1cc(NC(C)=O)ccc1C(=O)NNS(=O)(=O)c1ccc(Cl)cc1Cl | > 50 µM (inactive) | > 50 µM (inactive) | > 50 µM (inactive) | > 50 µM (inactive) | > 50 µM (inactive) | > 50 | > 50 µM (inactive) | > 50 µM (inactive) | 12.7 µM (inactive) | > 50 µM (inactive) | > 50 µM (inactive) | > 50 µM (inactive) | > 50 µM (inactive) | > 50 µM (inactive) | > 50 µM (inactive) | > 50 µM (inactive) | > 50 µM (inactive) | > 50 µM (inactive) | > 50 µM (inactive) | > 50 µM (inactive)
6 | O=C1C(=C/C=C2/SC(c3ccccc3)(c3ccccc3)c3ccccc32)C(=O)c2ccccc21 | > 100 µM (inactive) | > 100 µM (inactive) | > 100 µM (inactive) | > 100 µM (inactive) | > 100 µM (inactive) | > 100 | > 100 µM (inactive) | > 100 µM (inactive) | > 100 µM (inactive) | > 100 µM (inactive) | > 100 µM (inactive) | > 100 µM (inactive) | > 100 µM (inactive) | > 100 µM (inactive) | > 100 µM (inactive) | > 100 µM (inactive) | > 100 µM (inactive) | > 100 µM (inactive) | > 100 µM (inactive) | > 100 µM (inactive)
7 | Cc1ccc(C)c(/C(=N\N=C(N)N)C2CC2)c1 | 42.7 µM (inactive) | > 100 µM (inactive) | 35.1 µM (inactive) | 58.9 µM (inactive) | 20.4 µM (inactive) | 48.6 | 35.8 µM (inactive) | 47.2 µM (inactive) | 22.8 µM (inactive) | 31.7 µM (inactive) | 94.6 µM (inactive) | > 100 µM (inactive) | 29.9 µM (inactive) | 39.5 µM (inactive) | 42.6 µM (inactive) | 32.3 µM (inactive) | 35 µM (inactive) | 48.9 µM (inactive) | 37.5 µM (inactive) | 31.6 µM (inactive)
8 | COC(=O)c1ccccc1CC1Cc2cc3c(cc2C1)CCC3 | 36.6 µM (inactive) | 37.9 µM (inactive) | 23.8 µM (inactive) | 40.5 µM (inactive) | 42.5 µM (inactive) | 48.8 | 41.4 µM (inactive) | 26.9 µM (inactive) | 29.4 µM (inactive) | 35.2 µM (inactive) | 32.7 µM (inactive) | 39.5 µM (inactive) | 50.4 µM (inactive) | 40.8 µM (inactive) | 33.7 µM (inactive) | 54.2 µM (inactive) | 29.3 µM (inactive) | 74.1 µM (inactive) | 26.7 µM (inactive) | 31.2 µM (inactive)
9 | COc1cc(S(=O)(=O)Nc2ccc(-c3csc(/N=C\C=C\c4ccccc4)n3)cc2)ccc1Cl | 41.2 µM (inactive) | > 100 µM (inactive) | 36.7 µM (inactive) | 45.5 µM (inactive) | > 100 µM (inactive) | 50 | 43 µM (inactive) | 22.8 µM (inactive) | > 100 µM (inactive) | 24.2 µM (inactive) | > 100 µM (inactive) | 28.5 µM (inactive) | > 100 µM (inactive) | 29.9 µM (inactive) | 74.5 µM (inactive) | 22 µM (inactive) | > 100 µM (inactive) | 84.3 µM (inactive) | > 100 µM (inactive) | 7.76 µM (inactive)
10 | NC1=Nc2ccccc2Sc2nncn21 | > 100 µM (inactive) | > 100 µM (inactive) | > 100 µM (inactive) | > 100 µM (inactive) | > 100 µM (inactive) | > 100 | > 100 µM (inactive) | > 100 µM (inactive) | > 100 µM (inactive) | > 100 µM (inactive) | > 100 µM (inactive) | > 100 µM (inactive) | > 100 µM (inactive) | > 100 µM (inactive) | > 100 µM (inactive) | > 100 µM (inactive) | > 100 µM (inactive) | > 100 µM (inactive) | > 100 µM (inactive) | > 100 µM (inactive)
11 | COC(=O)Cc1c(-c2[nH]c3ccccc3c2CC(=O)OC)[nH]c2ccccc12 | > 58.9 µM (inactive) | > 37.2 µM (inactive) | > 53 µM (inactive) | > 53 µM (inactive) | > 57 µM (inactive) | > 50.7 | 23.2 µM (inactive) | > 50.9 µM (inactive) | > 54 µM (inactive) | > 54.7 µM (inactive) | 1.41 µM (inactive) | > 49.9 µM (inactive) | > 54.8 µM (inactive) | 20.4 µM (inactive) | > 57.9 µM (inactive) | 67.5 µM (inactive) | > 55 µM (inactive) | 53.5 µM (inactive) | > 57.4 µM (inactive) | > 56.1 µM (inactive)
12 | CCOC(=O)NC(NC1=NCCS1)(C(=O)OCC)C(F)(F)F (stereo not given) | > 100 µM (inactive) | > 100 µM (inactive) | > 100 µM (inactive) | > 100 µM (inactive) | > 100 µM (inactive) | > 100 | > 100 µM (inactive) | > 100 µM (inactive) | > 100 µM (inactive) | > 100 µM (inactive) | > 100 µM (inactive) | > 100 µM (inactive) | > 100 µM (inactive) | > 100 µM (inactive) | > 100 µM (inactive) | > 100 µM (inactive) | > 100 µM (inactive) | > 100 µM (inactive) | > 100 µM (inactive) | > 100 µM (inactive)
13 | O=C1C=C(C2=C(C3=CC(=O)c4ccccc4C3=O)C(=O)c3ccccc3C2=O)C(=O)c2ccccc21 | 17.9 µM (inactive) | 4.7 µM (inactive) | 3.94 µM (inactive) | 5.18 µM (inactive) | 16.9 µM (inactive) | 9.89 | 14.8 µM (inactive) | 2.45 µM (inactive) | 2.47 µM (inactive) | 13 µM (inactive) | 2.84 µM (inactive) | 6.03 µM (inactive) | 11.8 µM (inactive) | 12.6 µM (inactive) | 16.1 µM (inactive) | 8.28 µM (inactive) | 14 µM (inactive) | 14.4 µM (inactive) | 9.46 µM (inactive) | 10.5 µM (inactive)
14 | COP(=O)(OC)C12CCOCCN1c1ccccc1C2=O (stereo not given) | > 100 µM (inactive) | > 100 µM (inactive) | > 100 µM (inactive) | > 100 µM (inactive) | > 100 µM (inactive) | > 100 | > 100 µM (inactive) | > 100 µM (inactive) | > 100 µM (inactive) | > 100 µM (inactive) | > 100 µM (inactive) | > 100 µM (inactive) | > 100 µM (inactive) | > 100 µM (inactive) | > 100 µM (inactive) | > 100 µM (inactive) | > 100 µM (inactive) | > 100 µM (inactive) | > 100 µM (inactive) | > 100 µM (inactive)
